According to the supplement of paper PMC10307832:

What was measured:
Test in all cases: relative viability (nuclei count vs DMSO), 5 days (fraction); higher = more cells survive
CAP-232 + Lapatinib = compound: C[C@H]([C@@H](C(=O)N)NC(=O)[C@@H]1CSSC[C@@H](C(=O)N[C@H](C(=O)N[C@@H](C(=O)N[C@H](C(=O)N1)CCCCN)CC2=CNC3=CC=CC=C32)CC4=CC=C(C=C4)O)NC(=O)[C@@H](CC5=CC=CC=C5)N)O [CAP-232] + CS(=O)(=O)CCNCc1ccc(-c2ccc3ncnc(Nc4ccc(OCc5cccc(F)c5)c(Cl)c4)c3c2)o1 [Lapatinib] (partner 2 µM)
Method in brief: (§1)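 Lung cancer cell lines were pin-tool dosed in 1536-well plates on the day after seeding, with either a lone drug or a fixed anchor-drug dose plus five library-drug doses (not always all listed) in √10 steps. Nuclei were counted on 4× images after 5 days. Relative viability is the ratio of treated-well to vehicle-well nuclei counts, with each value a median of duplicate plates.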

CAP-232 + Pictilisib = compound: C[C@H]([C@@H](C(=O)N)NC(=O)[C@@H]1CSSC[C@@H](C(=O)N[C@H](C(=O)N[C@@H](C(=O)N[C@H](C(=O)N1)CCCCN)CC2=CNC3=CC=CC=C32)CC4=CC=C(C=C4)O)NC(=O)[C@@H](CC5=CC=CC=C5)N)O [CAP-232] + CS(=O)(=O)N1CCN(Cc2cc3nc(-c4cccc5[nH]ncc45)nc(N4CCOCC4)c3s2)CC1 [Pictilisib] (partner 1 µM)
Method in brief: as §1

CAP-232 + Alpelisib = compound: C[C@H]([C@@H](C(=O)N)NC(=O)[C@@H]1CSSC[C@@H](C(=O)N[C@H](C(=O)N[C@@H](C(=O)N[C@H](C(=O)N1)CCCCN)CC2=CNC3=CC=CC=C32)CC4=CC=C(C=C4)O)NC(=O)[C@@H](CC5=CC=CC=C5)N)O [CAP-232] + Cc1nc(NC(=O)N2CCC[C@H]2C(N)=O)sc1-c1ccnc(C(C)(C)C(F)(F)F)c1 [Alpelisib] (partner 2 µM)
Method in brief: as §1

CAP-232 + Phenformin = compound: C[C@H]([C@@H](C(=O)N)NC(=O)[C@@H]1CSSC[C@@H](C(=O)N[C@H](C(=O)N[C@@H](C(=O)N[C@H](C(=O)N1)CCCCN)CC2=CNC3=CC=CC=C32)CC4=CC=C(C=C4)O)NC(=O)[C@@H](CC5=CC=CC=C5)N)O [CAP-232] + N=C(N)NC(=N)NCCc1ccccc1 [Phenformin] (partner 250 µM)
Method in brief: as §1

CAP-232 + Dasatinib = compound: C[C@H]([C@@H](C(=O)N)NC(=O)[C@@H]1CSSC[C@@H](C(=O)N[C@H](C(=O)N[C@@H](C(=O)N[C@H](C(=O)N1)CCCCN)CC2=CNC3=CC=CC=C32)CC4=CC=C(C=C4)O)NC(=O)[C@@H](CC5=CC=CC=C5)N)O [CAP-232] + Cc1nc(Nc2ncc(C(=O)Nc3c(C)cccc3Cl)s2)cc(N2CCN(CCO)CC2)n1 [Dasatinib] (partner 0.075 µM)
Method in brief: as §1

Cell Line | relative viability (CAP-232 + Lapatinib; first compound 0.4 µM) | relative viability (CAP-232 + Lapatinib; first compound 1.265 µM) | relative viability (CAP-232 + Lapatinib; first compound 4 µM) | relative viability (CAP-232 + Lapatinib; first compound 12.65 µM) | relative viability (CAP-232 + Pictilisib; first compound 0.4 µM) | relative viability (CAP-232 + Pictilisib; first compound 1.265 µM) | relative viability (CAP-232 + Pictilisib; first compound 4 µM) | relative viability (CAP-232 + Pictilisib; first compound 12.65 µM) | relative viability (CAP-232 + Alpelisib; first compound 0.4 µM) | relative viability (CAP-232 + Alpelisib; first compound 1.265 µM) | relative viability (CAP-232 + Alpelisib; first compound 4 µM) | relative viability (CAP-232 + Alpelisib; first compound 12.65 µM) | relative viability (CAP-232 + Phenformin; first compound 0.4 µM) | relative viability (CAP-232 + Phenformin; first compound 1.265 µM) | relative viability (CAP-232 + Phenformin; first compound 4 µM) | relative viability (CAP-232 + Phenformin; first compound 12.65 µM) | relative viability (CAP-232 + Dasatinib; first compound 0.4 µM) | relative viability (CAP-232 + Dasatinib; first compound 1.265 µM) | relative viability (CAP-232 + Dasatinib; first compound 4 µM) | relative viability (CAP-232 + Dasatinib; first compound 12.65 µM)
HCC-44 | 1.14 | 1.03 | 1.05 | 0.987 | 0.675 | 0.616 | 0.428 | 0.594 | 0.898 | 0.768 | 0.843 | 0.75 | 0.392 | 0.128 | 0.194 | 0.171 |  |  |  | 
HCC-78 | 0.809 | 0.338 | 0.878 | 0.695 | 0.206 | 0.178 | 0.21 | 0.195 | 0.317 | 0.371 | 0.312 | 0.819 | 0.859 | 0.806 | 0.746 | 0.54 | 0.431 | 0.392 | 0.523 | 0.363
HCC-366 | 1.17 | 1.05 | 1.02 | 1 | 0.133 | 0.154 | 0.148 | 0.189 | 0.488 | 0.337 | 0.521 | 0.243 | 0.6 | 0.588 | 0.66 | 0.631 | 0.71 | 0.568 | 0.771 | 0.685
HCC-827 | 0.224 | 0.175 | 0.177 | 0.177 | 0.842 | 1.1 | 0.896 | 1.05 | 0.913 | 0.925 | 0.967 | 0.919 | 0.409 | 0.384 | 0.387 | 0.418 | 0.312 | 0.302 | 0.312 | 0.23
HOP-62 | 1.06 |  | 1.33 | 0.996 | 0.575 |  | 0.741 | 0.84 | 0.967 |  | 1.17 | 1.29 | 0.71 | 0.675 | 0.72 | 0.55 | 0.703 | 0.667 | 0.655 | 0.547
IA-LM | 0.79 | 0.705 | 0.928 | 0.292 | 0.359 | 0.365 | 0.39 | 0.146 | 0.881 | 0.742 | 0.629 | 0.296 |  |  |  |  |  |  |  | 
LC-2-ad | 1.07 | 0.891 | 0.949 | 1.09 | 0.404 | 0.409 | 0.63 | 0.458 | 0.931 | 0.823 | 0.804 | 0.824 | 0.707 | 0.514 | 0.603 | 0.257 | 0.907 | 0.525 | 0.547 | 0.26
LCLC-97TM1 | 1.13 | 1.15 | 1.05 | 0.946 | 0.217 | 0.193 | 0.232 | 0.193 | 0.252 | 0.228 | 0.285 | 0.244 | 0.462 | 0.387 | 0.463 | 0.422 | 0.896 | 0.889 | 0.82 | 0.851
LCLC-103H |  |  |  |  | 0.707 | 0.564 | 0.536 | 0.595 | 0.948 | 0.921 | 0.972 | 0.898 | 0.368 | 0.342 | 0.315 | 0.325 | 0.528 | 0.455 | 0.499 | 0.403
LK-2 | 0.942 | 1.06 | 0.808 | 0.759 | 0.42 | 0.608 | 0.494 | 0.61 | 1.02 | 1.15 | 1.2 | 1.75 | 0.47 | 0.302 | 0.389 | 0.415 | 0.295 | 0.133 | 0.202 | 0.201
LOU-NH91 | 0.781 | 0.771 | 0.821 | 0.639 | 0.479 | 0.512 | 0.501 | 0.438 | 0.738 | 0.771 | 0.699 | 0.58 | 0.725 | 0.752 | 0.769 | 0.487 | 0.593 | 0.548 | 0.618 | 0.437
NCI-H441 |  |  |  |  | 0.411 | 0.462 | 0.412 | 0.385 | 0.757 | 0.912 | 0.788 | 0.843 | 0.82 | 0.897 | 0.982 | 0.864 | 0.653 | 0.857 | 0.7 | 0.543
NCI-H522 |  |  |  |  |  |  |  |  |  |  |  |  | 0.7 | 0.72 | 0.592 | 0.69 | 1.1 | 0.73 | 0.914 | 0.735
NCI-H1650 | 0.737 | 0.788 | 0.966 | 0.214 | 0.636 | 0.578 | 0.535 | 0.154 |  |  |  |  | 0.479 | 0.335 | 0.424 | 0.153 | 0.344 | 0.27 | 0.282 | 0.231
NCI-H1703 | 1.44 | 1.01 | 1.21 | 0.882 | 0.245 | 0.224 | 0.269 | 0.261 | 0.34 | 0.378 | 0.344 | 0.351 |  |  |  |  |  |  |  | 
NCI-H2342 |  |  |  |  |  |  |  |  |  |  |  |  | 0.572 | 0.562 | 0.629 | 0.551 | 0.308 | 0.334 | 0.291 | 0.321
SW 900 |  |  |  |  |  |  |  |  |  |  |  |  | 0.644 | 0.527 | 0.722 | 0.457 | 0.644 | 0.614 | 0.64 | 0.591
